Test results as given in patent publication US20250281499A1, “FUSED AMINO PYRIMIDINE COMPOUNDS FOR TREATMENT OF NEUROPATHIC AND NEURO-INFLAMMATORY PAIN” (Ovid Therapeutics Inc., priority 2024, published 2025).

Columns and labels:
KCC3 = target: T1, KCC3 (Homo sapiens, UniProt Q9UHW9); assay: Tl+ flux assay, HEK-293 cells expressing KCC3; type: cell-based; settings: read-out: concentration at which effects on KCC3 were seen (EC50, FIG. 1G)
T1 construct: expressed in transfected cells; host or cells: HEK-293
T1 sequence (Q9UHW9 1-1150): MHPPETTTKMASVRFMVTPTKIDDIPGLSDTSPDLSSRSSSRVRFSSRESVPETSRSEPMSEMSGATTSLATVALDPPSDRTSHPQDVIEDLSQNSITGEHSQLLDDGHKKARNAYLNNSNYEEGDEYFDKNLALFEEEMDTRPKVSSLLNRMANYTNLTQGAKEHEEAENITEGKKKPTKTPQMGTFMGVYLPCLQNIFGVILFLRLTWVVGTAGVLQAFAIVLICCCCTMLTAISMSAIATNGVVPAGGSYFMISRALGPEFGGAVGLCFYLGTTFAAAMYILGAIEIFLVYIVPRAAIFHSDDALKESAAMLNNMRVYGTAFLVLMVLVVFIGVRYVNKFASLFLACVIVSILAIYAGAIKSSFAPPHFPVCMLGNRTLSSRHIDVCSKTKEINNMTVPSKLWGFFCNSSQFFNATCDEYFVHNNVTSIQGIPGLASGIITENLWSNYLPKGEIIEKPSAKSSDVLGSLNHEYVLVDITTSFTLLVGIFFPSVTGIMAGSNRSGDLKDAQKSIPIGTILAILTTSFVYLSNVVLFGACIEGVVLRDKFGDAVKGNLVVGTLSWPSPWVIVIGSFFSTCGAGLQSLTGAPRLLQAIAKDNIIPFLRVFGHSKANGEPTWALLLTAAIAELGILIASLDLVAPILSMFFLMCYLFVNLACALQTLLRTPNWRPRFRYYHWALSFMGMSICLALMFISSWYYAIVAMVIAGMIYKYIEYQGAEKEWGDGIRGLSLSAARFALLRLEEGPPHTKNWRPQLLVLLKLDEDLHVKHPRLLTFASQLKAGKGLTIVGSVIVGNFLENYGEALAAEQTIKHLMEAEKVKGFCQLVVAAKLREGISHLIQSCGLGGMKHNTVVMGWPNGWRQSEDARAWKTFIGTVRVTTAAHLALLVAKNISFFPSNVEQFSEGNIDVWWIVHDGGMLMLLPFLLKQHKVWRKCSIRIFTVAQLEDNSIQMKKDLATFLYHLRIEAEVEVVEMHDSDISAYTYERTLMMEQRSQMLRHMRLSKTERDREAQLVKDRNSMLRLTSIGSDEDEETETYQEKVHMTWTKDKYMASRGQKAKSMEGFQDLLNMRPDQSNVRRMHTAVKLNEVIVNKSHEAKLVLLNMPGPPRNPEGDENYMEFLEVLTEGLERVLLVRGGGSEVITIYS
Method: FLIPR TI Flux assay. HEK-293 cells were washed with HBSS, and then incubated with loading buffer containing TI sensitive fluorescent dye (https://www.moleculardevices.com), 20 μM bumetanide 20 μM ouabain and 2.5 mM probenecid for 1 h at room temperature (RT) under control conditions or with drugs in the dark using a FlexStation 3 microplate reader (Molecular Devices) and imaged […] for 30 min. Stimulus buffer was added containing 5 mM K^+/0.5 mM Tl^+ and cells were imaged every 1.5 over a 190 second time course The initial rate Tl^+ uptake (Relative Fluorescence Units (RFU) per second) was determined following addition of the stimulus buffer as outlined previously (Conway et al., 2017, supra) (Lee et al., 2022, supra).
Several studies have shown that the activity and plasma membrane accumulation of KCC2 is potentiated via phosphorylation of S940, a process mediated by the activity of protein kinase C and protein phosphatase 1 (Lee et al, 2011, supra; Lee et al., J Biol Chem 282, 29777-29784 (2007); Moore et al., Proc. Natl. Acad. Sci. U.S.A 115, 10166-10171 (2018); Moore et al., Trends Neurosci. 40, 555-571 (2017); Silayeva et al., Proc. Natl. Acad. Sci. U.S.A. 112, 3523-3528 (2015)). […] Compared to KCC2, effects on KCC3, KCC4, and NKCC1 were only seen at concentrations more than 35-fold that of KCC2 (>100 μM) (FIG. 1G).

hippocampus = assay: Neuronal cell death in the hippocampus, Compound A with diazepam; type: in vivo; settings: mice, Compound A and diazepam vs diazepam alone

C[C@@H]1CN(c2nc3c(c(Nc4ccc(C5CCCCC5)cc4)n2)COC3)CCO1 [Compound A, (R)—N-(4-cyclohexylphenyl)-2-(2-methylmorpholino)-5,7-dihydrofuro[3,4-d]pyrimidin-4-amine]
EC50 (KCC3): > 100 µM
neuronal cell death in the hippocampus (hippocampus): significantly reduced
